This note sets out measurements from a melting point compilation (Tetko et al.; mined from patent text by program, amines drawn as free bases though some values may be those of a salt).

By melting point is commonly meant the temperature of the solid-liquid transition.

Regarding `NC(=O)c1ccnc(NC(=O)N2CCC3(CCc4cc(F)ccc4O3)CC2)c1`, the melting point lay in the range of 265 to 267 °C.

In turn, `CCC1Cc2cc(OCC(=O)O)c(Cl)cc2C1=O` (stereo not drawn) yielded a melting point of 132 to 138 °C.

With `Clc1ccccc1C1=NN=C(c2ccccc2Cl)C(c2ccccc2)C1` (stereo not drawn), the melting point fell in the range of 151 to 153 °C.

The compound `N#Cc1ccc(-c2ccc(OCCN(O)C=O)cc2)cc1` registered a melting point of 142 to 145 °C.

The compound `CCCCNC(=O)c1cn2nc(N3CCN(C(=O)c4ccccc4C(F)(F)F)CC3)ccc2n1` had a melting point of 187 to 189 °C.

In turn, `Cc1c(Br)c2c(c(C)c1NC(=O)CC(C)(C)C)C(c1ccc(C(C)C)cc1)CS2` (stereo not drawn) came in with a melting point of 207 to 208 °C.

The compound `COC(=O)c1cc(-c2nc(COc3ccc(CO)cc3OC)c(C)o2)ccc1OS(C)(=O)=O` came in with a melting point of 126 to 127 °C.

Regarding `COc1cccc(Oc2ccc(C(=O)O)cc2C(=O)O)c1`, the melting point lay within 232 to 234 °C.

On to `CCOC(=O)CN1C(=O)C(Br)CCc2ccccc21` (stereo not drawn), for which the melting point fell in the range of 114 to 116 °C.

Compound `CN(C(=O)c1n[nH]c2c(=O)[nH]c3cc(Cl)ccc3c(=O)c12)c1ccccc1` returned a melting point of 308 °C.

`COc1cccc([C@H]2O[C@H](CC(=O)Nc3ccc4[nH]c(C(=O)O)cc4c3)C(=O)N(CC(C)(C)CO)c3ccc(Cl)cc32)c1OC` yielded a melting point of 200 to 201 °C.

On to `CC(C)c1ccc(S(=O)(=O)n2c(Cc3ccc(C(=O)O)cc3)cc3cc(C(F)(F)F)ccc32)cc1`, for which the melting point is 227 °C.

As to `O=[N+]([O-])c1cc(Cl)c(N=C=S)c(Cl)c1`, the melting point was in the range of 74 to 77 °C.

With `Cn1cc(OS(C)(=O)=O)c(=O)c2ccc(Cl)cc21`, the melting point lay within 157 to 158 °C.

Consider `COC1CN(C)S(=O)(=O)c2sccc21` (stereo not drawn), for which the melting point was 61 to 63 °C.

`COc1ccc(NC(=NC#N)NC(NC(=O)c2ccc(Cl)cc2)C(C)(Cl)Cl)c(OC)n1` (stereo not drawn) showed a melting point of 162 to 163 °C.

Turning to `Nc1ncnc2c([C@@H]3N[C@H](CO)[C@@H](O)[C@H]3O)c[nH]c12`, the melting point turned out to be 238 °C.

With `Oc1cc(OCc2ccccn2)ccc1/C=C/c1cc(/C=C/c2ccc3cc[nH]c3c2)n[nH]1`, the melting point is 202 to 204 °C.

The compound `CC(=O)Nc1nc2c(s1)-c1nc(-c3ccccc3Cl)ncc1C2` displayed a melting point of 257 °C.

In turn, `CC(C(=O)O)c1ccc2c(c1)C(=O)Cc1cccnc1S2` (stereo not drawn) gave a melting point of 141 to 143 °C.

For `CCCCCCCOc1ccc(CNc2ccc(C(=O)OCC)cc2)cc1`, the melting point fell in the range of 111 to 113 °C.

`CCS(=O)(=O)Nc1c(C)c(C)cc2nc(OC)c(OC)nc12` yielded a melting point of 201 to 203 °C.

On to `FC(F)(F)c1cc(-n2cc(/C=C/c3nnn[nH]3)c(-c3cccc(Cl)c3)n2)cc(C(F)(F)F)c1`, for which the melting point was 228 to 229 °C.

Compound `COC(=O)C(=O)CC(=O)c1cc(F)c(OC)c(F)c1` returned a melting point of 185 to 190 °C.

`Cc1nc2scc(C)n2c(=O)c1CCN1CCC(C(=O)c2ccc(F)cc2)CC1` displayed a melting point of 200 °C.

In the case of `CCCCCCCc1ccc(C(=O)CCCC(=O)O)cc1`, the melting point came out at 101 °C.

For `CC(=O)NC(n1ccnc1)C(Cl)(Cl)CCl` (stereo not drawn), the melting point is 151 to 154 °C.

Compound `COc1ccc2[nH]c(=O)c(-c3nnn(Cc4cccc(OCc5ccc6ccccc6n5)c4)n3)cc2c1` gave a melting point of 213 to 214 °C.

The compound `Fc1cc2nc3c(cnn3-c3ccccn3)c(Cl)c2cc1F` returned a melting point of 167 to 168 °C.

Compound `CN(C)C(=O)N(C)c1nc2cc(C(C)(C)C)ccc2s1` had a melting point of 107 to 108 °C.

In turn, `COc1cc(C)cc(OC)c1NC(=O)CNC(=O)OC(C)(C)C` displayed a melting point of 146 °C.

As to `CCC(CC)C(=O)N1CC(NC(=O)Nc2cccc(C(=O)O)c2)C(=O)N(CC(=O)c2ccccc2C)c2cc(C)ccc21` (stereo not drawn), the melting point was in the range of 244 to 246 °C.

In the case of `CCc1nc2c(N)nc3ccccc3c2n1CCCC(C)=O`, the melting point is 206 to 208 °C.

With `O=C(c1ccc(=O)[nH]c1)n1ccnc1`, the melting point was determined as 200 °C.

Regarding `CCC(=O)C(CC)=NNc1ccccc1[N+](=O)[O-]`, the melting point is 96 to 97 °C.

With `COc1ccc(CCC(N)CC(=O)O)cc1` (stereo not drawn), the melting point is 180 to 184 °C.

As to `CC(=O)NC(=Cc1cccs1)C1=NC(=Cc2ccc([N+](=O)[O-])cc2)C(=O)O1`, the melting point lay in the range of 196 to 197 °C.

`Cc1nc2c(C)cccn2c(=O)c1CCN1CC=C(c2c[nH]c3ccc(F)cc23)CC1`: the melting point is 229 to 230 °C.

Turning to `CC(C)(C)OC(=O)N1CCC2(CC1)C(=O)N(CC(=O)O)CN2C1CCCCC1`, the melting point was in the range of 173 to 174 °C.

Compound `Cc1cc(C=O)cc(C=O)c1OCCCC(c1ccc(F)cc1)c1ccc(F)cc1` registered a melting point of 97 °C.

As for `CC(C(=O)N(C)C)n1ccc(-c2cccs2)n1` (stereo not drawn), the melting point was 95 to 97 °C.

`CCCCOCCOc1ccc(-c2ccc(N(C)CCC)c(C=CC(=O)O)c2)cc1` yielded a melting point of 95 to 97 °C.

`COc1cccc(Sc2c(O)cc(-c3ccccc3)oc2=O)c1`: the melting point fell in the range of 130 to 131 °C.

Consider `COC(=O)c1ccc(OCC(O)c2ccc3c(c2)C(C)(C)CCC3(C)C)cc1O` (stereo not drawn), for which the melting point was in the range of 133 to 134 °C.

`CN1Cc2ccc(COc3cccc4c3CN(C3CCC(=O)NC3=O)C4=O)cc2C1` (stereo not drawn): the melting point was in the range of 262 to 264 °C.

Compound `CC(=NOCCOc1ccc(CC2SC(=O)N(C(c3ccccc3)(c3ccccc3)c3ccccc3)C2=O)cc1)c1ccc(-c2ccccc2)cc1` (stereo not drawn) gave a melting point of 145 °C.

In turn, `COc1ccc(C(=O)c2c(F)cccc2F)cc1` gave a melting point of 122 to 124 °C.

The compound `O=C(O)Cc1ccccc1OCc1ccc(OCc2csc(-c3ccccc3)n2)cc1` came in with a melting point of 115 to 116 °C.

Compound `CC(C)(C)c1cc(-c2ccc(F)cc2F)cc(C(=O)Nc2ccc(S(=O)(=O)C(F)(F)F)cc2Cl)c1O` yielded a melting point of 114 to 115 °C.

Compound `COC[C@H]1CCCN1C(=O)c1cc(-c2ccccc2)c(=O)n2c1-c1sccc1C2` came in with a melting point of 150 to 152 °C.

On to `O=C(CCCC(c1cc(F)ccc1F)S(=O)(=O)c1ccc(Cl)cc1)N1CCCC1` (stereo not drawn), for which the melting point was 125 to 126 °C.

For the compound `Cc1ccc(O)c2c1N(Cc1ccccc1)C(=O)C2(C)C`, the melting point lay in the range of 128 to 129 °C.

Turning to `CCc1cc(NCc2ccc(-n3cccc3-c3nnn[nH]3)cc2)n2nccc2n1`, the melting point lay in the range of 129 to 130 °C.

`C[C@@H](NC(=O)OCc1ccccc1)[C@H](O)C(=O)O` yielded a melting point of 156 to 158 °C.

In the case of `O=C(O)c1c[n+]([O-])cc2ccccc12`, the melting point lay in the range of 280 to 283 °C.

As for `CCS(=O)(=O)c1ccc(SC2SCC(O)C(O)C2O)cc1` (stereo not drawn), the melting point lay in the range of 130 to 135 °C.

Turning to `Cc1cccc(Cl)c1CC#N`, the melting point lay within 49 to 51 °C.

`COc1ccc(F)cc1C(C)(C)CC(O)(Cn1ccc(=O)c2ccccc21)C(F)(F)F` (stereo not drawn) returned a melting point of 170 to 172 °C.

`Cc1noc(NS(=O)(=O)c2ccccc2)c1-c1ccccc1` returned a melting point of 124 to 126 °C.

With `CCOC(=O)C=Cn1c(=O)n2nc(C(=O)OCC)cc2c2cc(OC)ccc21`, the melting point is 153 to 154 °C.

The compound `Cc1nnc(NCCCC(C)N2CCNCC2)c2cc3ccccn3c12` (stereo not drawn) showed a melting point of 110 to 111 °C.

On to `COc1ccc(Cn2ncc(N3CCOCC3)c(C=NO)c2=O)cc1`, for which the melting point was in the range of 166 to 168 °C.

With `Cc1cccc(C(=O)Cc2ccnc(NC(=O)OC(C)(C)C)c2)c1`, the melting point fell in the range of 144 to 146 °C.

The compound `CN(CCCNC(=O)COc1nc2ccccc2s1)Cc1ccc(Cl)c(Cl)c1` returned a melting point of 113 to 115 °C.

As to `CC1(C)Cc2c(Cl)cccc2C1N=CNC#N` (stereo not drawn), the melting point was 173 to 175 °C.

`CC(=O)Nc1ccc(Nc2nccc(-c3sc(C)nc3C)n2)cc1` showed a melting point of 219 to 220 °C.

Turning to `COC(=O)CCC(NC(=O)Cc1cc(C)c(C(=O)c2ccc(Cl)cc2)n1C)C(=O)OC` (stereo not drawn), the melting point was in the range of 129 to 130 °C.

`N=C(N)c1ccc2c(c1)N(CC(=O)c1ccccc1-c1ccccc1)C(=O)CN2` gave a melting point of 148 to 150 °C.

The compound `Cc1cccc(NC(=O)CN2CCN(c3ncccn3)CC2)c1` registered a melting point of 113 to 116 °C.

Regarding `COC(=O)c1ccc2c(c1)CN(C(=O)c1ccc(-c3ccccc3)cc1)C2`, the melting point was in the range of 172 to 180 °C.

Consider `Cc1cc(=O)c(Oc2ccc(F)cc2F)c(-c2ccc(S(C)(=O)=O)cc2)o1`, for which the melting point amounted to 191 °C.

`COc1cc2c(cc1OC)C(=O)C(=Cc1cc(C)c([N+](=O)[O-])c(C)c1)C2` showed a melting point of 242 to 243 °C.

`C#CC1=Cc2cc(Cl)ccc2Sc2ccc(SC)cc21`: the melting point fell in the range of 100 to 103 °C.

In the case of `CCCCCCCCCCCCC1CC(=O)CCC1=O` (stereo not drawn), the melting point was determined as 73 °C.

The compound `CC(CO)C1CCC2=C3C=CC4C(C)(C)C(OC(=O)c5ccccc5)CCC4(C)C3CCC21C` (stereo not drawn) returned a melting point of 218 to 220 °C.

For `CSc1c(C#N)c(=O)n(C)c(=O)n1C`, the melting point lay within 118 to 120 °C.

`COc1ccc(C(=O)CCC(=O)O)cc1OC1CCCC1`: the melting point was 111 to 113 °C.

For the compound `Cc1ccccc1-c1nccc2c(CC#N)cccc12`, the melting point amounted to 120 °C.

`COC(=O)C1Oc2ccc(Oc3ccc(Cl)cc3)cc2C(C)(c2ccccc2)O1` (stereo not drawn) showed a melting point of 100 °C.

For the compound `Cc1cc(-c2ccc(Cl)cc2)nc(-n2cnc(-c3cccc(S(C)(=O)=O)c3)c2)n1`, the melting point is 233 °C.

`COC(=O)c1cc(N2CCC2)c(C(F)(F)F)cc1[N+](=O)[O-]` came in with a melting point of 127 to 136 °C.

The compound `COc1ccc(-c2ccncc2)cc1-c1cccc(Oc2ccccc2)c1` showed a melting point of 184 to 204 °C.

The compound `Cc1cc(Cn2cc(C(F)(F)C(F)(F)F)c(C(F)(F)C(F)(F)F)n2)ccc1NC(=O)c1cccc(Br)c1C(=O)N[C@@H](C)CS(C)(=O)=O` displayed a melting point of 134 to 136 °C.

In the case of `CCCCc1ccc(-c2ccc(CCc3cc(F)cc(F)c3)cc2)cc1`, the melting point amounted to 59 °C.

`Cc1cccc(Cl)c1NC1=NCCN1` gave a melting point of 112 to 114 °C.

`Clc1cc2cc[nH]c2c2cccnc12` gave a melting point of 248 to 250 °C.

On to `Cn1ccn(CO)c1=O`, for which the melting point was 102 to 104 °C.

With `CC12C=CC(O)CC1CCC1C2CCC2(C)C(C#N)CCC12` (stereo not drawn), the melting point lay in the range of 129 to 133 °C.
